Assay results published in US5064946A, “Therapeutic nucleosides” (priority 1987, dated 1991).

What was measured:
E. coli CN314 = experiment: In vitro antibacterial MIC and synergy studies against E. coli CN314; details: Escherichia coli
Salmonella typhimurium = experiment: In vitro antibacterial activity (MIC), Salmonella typhimurium; format: cell-based; details: Salmonella enterica, Wellcotest sensitivity Test Agar + 7% lysed horse blood
Citro. freundii = experiment: In vitro antibacterial activity (MIC), Citro. freundii; format: cell-based; details: Citrobacter freundii; Wellcotest sensitivity Test Agar + 7% lysed horse blood
Entero. aerogenes = experiment: In vitro antibacterial activity (MIC), Entero. aerogenes; format: cell-based, Enterobacter aerogenes; details: Klebsiella aerogenes; Wellcotest sensitivity Test Agar + 7% lysed horse blood
HIV [1] = experiment: AZT/Acyclovir combinations vs. HIV in vitro (protection); format: cell-based
HIV [2] = experiment: Anti-HIV activity of 3'-azidonucleosides in vitro (T-cells); format: cell-based; details: Human immunodeficiency virus 1; T-cells exposed to HIV, viable cell count; read-out: ED50 (the source's name)
[3] = tested on: Friend Leukemia Virus (FLV); experiment: Anti-Friend Leukemia Virus plaque inhibition in FG-10 cells; format: cell-based; details: dipyridamole 10 μM, dilazep 5 μM, each alone

Structure (SMILES) | MIC (E. coli CN314) | MIC (Salmonella typhimurium) | MIC (Citro. freundii) | MIC (Entero. aerogenes) | also measured
CC[C@H]1OC(=O)[C@H](C)[C@@H](O[C@H]2C[C@@](C)(OC)[C@@H](O)[C@H](C)O2)[C@H](C)[C@@H](O[C@@H]2O[C@H](C)C[C@H](N(C)C)[C@H]2O)[C@](C)(O)C[C@@H](C)C(=O)[C@H](C)[C@@H](O)[C@]1(C)O [Erythromycin] | 25 µg/mL | – | – | – | –
Cc1cn([C@H]2C[C@H](N=[N+]=[N-])[C@@H](CO)O2)c(OCc2ccccc2)nc1=O [Compound 6, 1-(3'-Azido-2',3'-dideoxy-β-D-erythro-pentofuranosyl)-2-(benzyloxo)-5-methyl-4-(1H)-pyrimidinone] | – | 10 µg/mL | 10 µg/mL | 10 µg/mL | –
Nc1nc2c(ncn2COCCO)c(=O)[nH]1 [ACV, 9-(2-hydroxyethoxymethyl)guanine] | – | – | – | – | potentiation of the antiviral activity of AZT (HIV [1]): about 3 -fold; activity alone vs. HIV (HIV [1]; ACV alone): little activity; inhibition at 16 µg/mL (HIV [1]; Human immunodeficiency virus 1, T-cell, ACV alone, 16 μg/ml (highest tested)): < 30%
CC(=O)OC[C@H]1O[C@@H](n2cc(C)c(=S)[nH]c2=O)C[C@@H]1N=[N+]=[N-] [Compound 2, 3'-Azido-3'-deoxy-5'-O-acetyl-4-thiothymidine] | – | 10 µg/mL | 10 µg/mL | 10 µg/mL | –
[N-]=[N+]=N[C@H]1C[C@H](n2ccc(N)nc2=O)O[C@@H]1CO [3'-Azido-2',3'-dideoxycytidine] | – | – | – | – | EC50 (HIV [2]): 10 µM
O=C(N[C@H](CO)[C@H](O)c1ccc([N+](=O)[O-])cc1)C(Cl)Cl [Chloramphenicol] | 3.1 µg/mL | – | – | – | –
COc1cc(C(=O)OCCCN2CCCN(CCCOC(=O)c3cc(OC)c(OC)c(OC)c3)CC2)cc(OC)c1OC [dilazep] | – | – | – | – | observed antiviral effect alone [3]: Neither dipyridamole (10 μM) nor dilazep (5 μM) alone had any observed antiviral effect
COc1nc(=O)c(C)cn1[C@H]1C[C@H](N=[N+]=[N-])[C@@H](CO)O1 [Compound 7, 3'-Azido-3'-deoxy-2-methoxythymidine] | – | 10 µg/mL | 10 µg/mL | 10 µg/mL | –
[N-]=[N+]=N[C@H]1C[C@H](n2cc(Br)c(N)nc2=O)O[C@@H]1CO [3'-Azido-5-bromo-2',3'-dideoxycytidine] | – | – | – | – | EC50 (HIV [2]): 5 µM
[N-]=[N+]=N[C@H]1C[C@H](n2cc(/C=C/C(=O)O)c(=O)[nH]c2=O)O[C@@H]1CO [(E)-3-[1-(3'-Azido-2',3'-dideoxy-β-D-erythro-pentofuranosyl)-1,2,3,4-tetrahydro-2,4-dioxo-5-pyrimidinyl]-2-propenoic Acid] | – | – | – | – | EC50 (HIV [2]): 100 µM
CC(=O)OC[C@H]1O[C@@H](n2cc(C)c(=O)n(C(=O)c3ccccc3)c2=O)C[C@@H]1N=[N+]=[N-] [Compound 4, 5'-Acetyl-3'-azido-3-benzoyl-3'-deoxythymidine] | – | < 0.1 µg/mL | < 0.1 µg/mL | > 100 µg/mL | –
Cc1cn([C@H]2C[C@H](N=[N+]=[N-])[C@@H](CO)O2)c(=O)[nH]c1=S [Compound 1, 3'-Azido-3'-deoxy-4-thiothymidine] | – | < 0.1 µg/mL | 10 µg/mL | < 0.1 µg/mL | –
OCCN(CCO)c1nc(N2CCCCC2)c2nc(N(CCO)CCO)nc(N3CCCCC3)c2n1 [dipyridamole] | – | – | – | – | observed antiviral effect alone [3]: Neither dipyridamole (10 μM) nor dilazep (5 μM) alone had any observed antiviral effect
NC[C@H]1O[C@H](O[C@H]2[C@H](O)[C@@H](O[C@H]3O[C@H](CO)[C@@H](O)[C@H](N)[C@H]3O)[C@H](N)C[C@@H]2N)[C@H](N)C[C@@H]1O [Tobramycin] | 0.4 µg/mL | – | – | – | –
CCC[C@@H]1C[C@@H](C(=O)N[C@@H]([C@H]2O[C@H](SC)[C@H](O)[C@@H](O)[C@H]2O)[C@H](C)Cl)N(C)C1 [Clindamycin] | 100 µg/mL | – | – | – | –
CO[C@H]1/C=C/O[C@@]2(C)Oc3c(C)c(O)c4c(O)c(c(/C=N/N5CCN(C)CC5)c(O)c4c3C2=O)NC(=O)/C(C)=C\C=C\[C@H](C)[C@H](O)[C@@H](C)[C@@H](O)[C@@H](C)[C@H](OC(C)=O)[C@@H]1C [Rifampicin] | 6.2 µg/mL | – | – | – | –
[N-]=[N+]=N[C@H]1C[C@H](n2cc(Br)c(=O)[nH]c2=O)O[C@@H]1CO [Compound 8, 3'-Azido-5-bromo-2',3'-dideoxyuridine] | – | > 100 µg/mL | > 100 µg/mL | > 100 µg/mL | EC50 (HIV [2]): 5 µM
Cc1cn([C@H]2C[C@H](N=[N+]=[N-])[C@@H](CO)O2)c(=S)[nH]c1=O [Compound 3, 3'-Azido-3'-deoxy-2-deoxy-2-thiothymidine] | – | 10 µg/mL | 10 µg/mL | > 100 µg/mL | –
Cc1cc(C)nc(NS(=O)(=O)c2ccc(N)cc2)n1 [Sulphadimidine] | 32 µg/mL | – | – | – | –
CC(=O)O[C@H]1C[C@@]2(C)[C@@H](C[C@@H](O)[C@H]3[C@@]4(C)CC[C@@H](O)[C@@H](C)[C@@H]4CC[C@@]32C)/C1=C(\CCC=C(C)C)C(=O)O [Fusidic acid] | 1000 µg/mL | – | – | – | –
COc1cc(Cc2cnc(N)nc2N)cc(OC)c1OC [Trimethoprim, 2,4-diamino-5-(3',4',5'-trimethoxybenzyl) pyrimidine, reference compound] | 0.125 µg/mL | 0.5 µg/mL | 0.5 µg/mL | 0.5 µg/mL | –
CC(=O)OC[C@H]1O[C@@H](n2cc(C)c(-n3cncn3)nc2=O)C[C@@H]1N=[N+]=[N-] [Compound 5, 1-(5'-O-Acetyl-3'-azido-2',3'-deoxy-β-D-erythro-pentofuranosyl)-5-methyl-4-(1,2,4-triazol-1-yl)-2(1H)-pyrimidinone] | – | > 100 µg/mL | 10 µg/mL | 100 µg/mL | –
